Results on 1 compound are retold here after PMC7434893 (British Journal of Cancer, 2020).

The term IC50 denotes the concentration that gives 50% inhibition.

One assay deals with NCI-H211. Briefly: 8-day growth inhibition. Type of assay: cell-based. The note with it: SCLC, NCI-H211, 8-day assay.
The next assay deals with NCI-H1694. Briefly: 8-day growth inhibition. Type of assay: cell-based. The note with it: SCLC, NCI-H1694, 8-day assay.
In the next assay the test system is SF-295. In words: 8-day growth inhibition. Type of assay: cell-based. The note with it: GBM, SF-295, 8-day assay.
For the next assay, the system named is HCC70. Briefly: 8-day growth inhibition. The format is cell-based. The note with it: Breast, HCC70, 8-day assay.
The subject of the next assay is SNU-423. In words: 8-day growth inhibition. The format is cell-based. To be noted: HCC, SNU-423, 8-day assay.
For the next assay, the system named is T47D. Briefly: 8-day growth inhibition. Type of assay: cell-based. To be noted: Breast, 8-day assay.
The next assay relates to SNU-182. Briefly: 8-day growth inhibition. The format is cell-based. To be noted: HCC, SNU-182, 8-day assay.
The next assay deals with ECC-1. In words: 8-day growth inhibition. Type of assay: cell-based. The note with it: Endometrial, ECC-1, 8-day assay.
The test system of another assay is C3A. In words: 8-day growth inhibition. Type of assay: cell-based. The note with it: HCC, 8-day assay.
Assay [1] has as its system human colon cancer SW480 cells. The note with it: cited from earlier work.
A further assay relates to DB. In words: 8-day growth inhibition. Type of assay: cell-based. The note with it: DLBCL (GC), 8-day assay.
A further assay deals with ARH-77. Briefly: 8-day growth inhibition. Type of assay: cell-based. To be noted: Myeloma, ARH-77, 8-day assay.
For another assay, the system named is KG-1. In words: 8-day growth inhibition. The format is cell-based. To be noted: AML, KG-1, 8-day assay.
The next assay has as its system NCI-H929. In words: 8-day growth inhibition. To be noted: Myeloma, NCI-H929, 8-day assay. Type of assay: cell-based.
The test system of the next assay is HL-60. Briefly: 8-day growth inhibition. Type of assay: cell-based. To be noted: Promyelocytic leukemia, HL-60, 8-day assay.
Another assay relates to HEC-88nu. Briefly: 8-day growth inhibition. Type of assay: cell-based. The note with it: Endometrial, 8-day assay.
The subject of another assay is Toledo. Briefly: 8-day growth inhibition. The note with it: DLBCL (GC), 8-day assay. Type of assay: cell-based.
The test system of another assay is KLE. In words: 8-day growth inhibition. Type of assay: cell-based. The note with it: Endometrial, 8-day assay.
Another assay deals with NCEB-1. In words: 8-day growth inhibition. The format is cell-based. To be noted: MCL, NCEB-1, 8-day assay.

As for `O=c1[nH]nc2c3c(cccc13)N=C(CN1Cc3ccccc3C1)N2` [E7449], the IC50 in the assay with NCI-H211 was determined as 480 nM; in the assay with NCI-H1694 it was 2470 nM; with SF-295, 2600 nM; in the assay with HCC70, 9300 nM; in the assay with SNU-423, 19000 nM; in the assay on T47D it was 7800 nM. Moreover, the IC50 is 5400 nM in the assay on SNU-182; 680 nM in the assay with ECC-1; 2540 nM in the assay on C3A; 1600 nM with DB; 3200 nM with ARH-77; 2000 nM in the assay on KG-1. The IC50 worked out at 5200 nM in the assay with NCI-H929; 10300 nM in the assay on HL-60; 1140 nM in the assay on HEC-88nu; 1600 nM with Toledo; 2590 nM in the assay with KLE; 5300 nM in the assay on NCEB-1. For the same compound, the “Active and total β-catenin” value in assay [1] was “concomitant reduction”. The Axin2 levels entry in assay [1] is recorded as “significant increase”.
